Earlier results as cited in patent US20220000750A1, “THE PROCESS FOR THE PREPARATION AND USE OF HAIR TREATMENT COMPOSITIONS CONTAINING ORGANIC C1-C6 ALKOXY SILANES” (Henkel AG & Co. KGaA, priority 2019, published 2022).

Details: 25° C.

solubility in water (in words) | Compound | solubility in water
 | O=C([O-])c1c(Cl)c(Cl)c(Cl)c(Cl)c1-c1c2c(Br)cc(=O)c(Br)c-2oc2c(Br)c(O)cc(Br)c12.O=C([O-])c1c(Cl)c(Cl)c(Cl)c(Cl)c1-c1c2c(Br)cc(=O)c(Br)c-2oc2c(Br)c(O)cc(Br)c12.[Na+].[Na+] [Acid Red 92, disodium salt of 3,4,5,6-tetrachloro-2-(1,4,5,8-tetrabromo-6-hydroxy-3-oxoxanthen-9-yl)benzoic acid] | greater than 10 g/L
 | O=S(=O)([O-])c1ccc(N=Nc2c(O)ccc3ccccc23)cc1.[Na+] [Acid Orange 7, sodium salt of 4-[(2-hydroxy-1-naphthyl)azo]benzene sulphonate] | more than 7 g/L
 | Nc1cc(S(=O)(=O)[O-])cc2cc(S(=O)(=O)[O-])c(N=Nc3ccccc3)c(O)c12.[Na+].[Na+] [Acid Red 33, diantrium salt of 5-amino-4-hydroxy-3-(phenylazo)-naphthalene-2,7-disulphonate] | 2500 µg/mL
 | CCN(Cc1cccc(S(=O)(=O)[O-])c1)c1ccc(C(=C2C=CC(=[N+](CC)Cc3cccc(S(=O)(=O)[O-])c3)C=C2)c2ccccc2S(=O)(=O)[O-])cc1.[Na+].[Na+] [Acid Blue 9] | more than 20 % by weight
highly soluble | O=C([O-])C1=NN(c2ccc(S(=O)(=O)[O-])cc2)C(=O)C1N=Nc1ccc(S(=O)(=O)[O-])cc1.[Na+].[Na+].[Na+] (centres unmarked) [Acid Yellow 23, trisodium salt of 4,5-dihydro-5-oxo-1-(4-sulfophenyl)-4-((4-sulfophenyl)azo)-1H-pyrazole-3-carboxylic acid] | 
